{"source": "paper PMC6704710", "about": "“Preclinical evaluation of 3D185, a novel potent inhibitor of FGFR1/2/3 and CSF-1R, in FGFR-dependent and macrophage-dominant cancer models” (Journal of Experimental & Clinical Cancer Research : CR, 2019)", "key": {"[1]": {"target": "T1, CDK9/cyclin T1(h) (Homo sapiens, UniProt P50750)", "T1 construct": "purchased Eurofins (KinaseProfiler)", "T1 sequence (P50750 whole entry)": "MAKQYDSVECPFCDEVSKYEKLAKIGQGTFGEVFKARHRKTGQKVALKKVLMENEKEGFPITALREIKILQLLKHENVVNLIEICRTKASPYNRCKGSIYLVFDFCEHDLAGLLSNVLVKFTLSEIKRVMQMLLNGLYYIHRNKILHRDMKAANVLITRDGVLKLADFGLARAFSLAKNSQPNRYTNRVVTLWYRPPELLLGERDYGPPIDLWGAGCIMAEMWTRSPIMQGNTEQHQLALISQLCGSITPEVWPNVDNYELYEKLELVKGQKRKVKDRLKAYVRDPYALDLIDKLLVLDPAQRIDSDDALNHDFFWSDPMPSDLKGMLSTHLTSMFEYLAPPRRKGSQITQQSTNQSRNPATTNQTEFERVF", "T1 sequence (O60563 whole entry partner)": "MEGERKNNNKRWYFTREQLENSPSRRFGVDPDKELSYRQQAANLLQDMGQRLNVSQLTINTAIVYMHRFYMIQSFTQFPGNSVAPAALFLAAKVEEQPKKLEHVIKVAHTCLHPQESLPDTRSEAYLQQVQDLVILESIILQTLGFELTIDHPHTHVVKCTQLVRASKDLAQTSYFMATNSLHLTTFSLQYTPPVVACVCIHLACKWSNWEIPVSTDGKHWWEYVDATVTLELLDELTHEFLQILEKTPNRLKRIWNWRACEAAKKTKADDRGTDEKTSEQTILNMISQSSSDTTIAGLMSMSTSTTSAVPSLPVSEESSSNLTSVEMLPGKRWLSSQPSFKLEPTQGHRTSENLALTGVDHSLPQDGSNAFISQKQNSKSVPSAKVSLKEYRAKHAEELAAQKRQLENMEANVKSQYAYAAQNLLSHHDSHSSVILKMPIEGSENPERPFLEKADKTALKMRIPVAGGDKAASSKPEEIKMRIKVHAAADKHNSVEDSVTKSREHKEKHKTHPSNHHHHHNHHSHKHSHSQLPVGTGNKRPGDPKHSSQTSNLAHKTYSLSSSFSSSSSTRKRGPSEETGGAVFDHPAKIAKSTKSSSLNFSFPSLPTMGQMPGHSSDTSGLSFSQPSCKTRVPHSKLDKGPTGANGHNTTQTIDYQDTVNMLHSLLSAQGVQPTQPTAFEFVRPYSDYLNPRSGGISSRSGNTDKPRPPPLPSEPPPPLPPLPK", "assay": "Eurofins kinase panel", "format": "biochemical", "conditions": "read-out: Inhibition rate (%)"}, "[2]": {"target": "T2, DMPK(h) (Homo sapiens, UniProt Q09013)", "T2 construct": "purchased Eurofins (KinaseProfiler)", "T2 sequence (Q09013 1-629)": "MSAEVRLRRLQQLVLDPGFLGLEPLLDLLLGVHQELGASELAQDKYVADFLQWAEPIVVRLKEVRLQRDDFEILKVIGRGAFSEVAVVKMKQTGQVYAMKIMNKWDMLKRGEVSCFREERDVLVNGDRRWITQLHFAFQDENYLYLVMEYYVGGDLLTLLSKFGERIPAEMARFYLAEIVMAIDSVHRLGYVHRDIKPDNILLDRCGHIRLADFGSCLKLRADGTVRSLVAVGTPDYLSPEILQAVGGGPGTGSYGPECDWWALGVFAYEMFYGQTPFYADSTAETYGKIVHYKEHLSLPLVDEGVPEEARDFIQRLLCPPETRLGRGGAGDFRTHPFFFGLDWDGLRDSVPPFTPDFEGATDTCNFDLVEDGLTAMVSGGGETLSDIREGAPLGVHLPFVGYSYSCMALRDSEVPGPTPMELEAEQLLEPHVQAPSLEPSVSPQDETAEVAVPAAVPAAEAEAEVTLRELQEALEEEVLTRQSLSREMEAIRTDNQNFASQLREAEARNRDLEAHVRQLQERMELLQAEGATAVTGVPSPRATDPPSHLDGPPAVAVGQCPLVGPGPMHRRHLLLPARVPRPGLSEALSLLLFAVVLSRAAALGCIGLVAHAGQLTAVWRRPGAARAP", "assay": "Eurofins kinase panel", "format": "biochemical", "conditions": "read-out: Inhibition rate (%)"}, "[3]": {"target": "T3, PKCμ(h) (Homo sapiens, UniProt Q15139)", "T3 construct": "purchased Eurofins (KinaseProfiler)", "T3 sequence (Q15139 1-912)": "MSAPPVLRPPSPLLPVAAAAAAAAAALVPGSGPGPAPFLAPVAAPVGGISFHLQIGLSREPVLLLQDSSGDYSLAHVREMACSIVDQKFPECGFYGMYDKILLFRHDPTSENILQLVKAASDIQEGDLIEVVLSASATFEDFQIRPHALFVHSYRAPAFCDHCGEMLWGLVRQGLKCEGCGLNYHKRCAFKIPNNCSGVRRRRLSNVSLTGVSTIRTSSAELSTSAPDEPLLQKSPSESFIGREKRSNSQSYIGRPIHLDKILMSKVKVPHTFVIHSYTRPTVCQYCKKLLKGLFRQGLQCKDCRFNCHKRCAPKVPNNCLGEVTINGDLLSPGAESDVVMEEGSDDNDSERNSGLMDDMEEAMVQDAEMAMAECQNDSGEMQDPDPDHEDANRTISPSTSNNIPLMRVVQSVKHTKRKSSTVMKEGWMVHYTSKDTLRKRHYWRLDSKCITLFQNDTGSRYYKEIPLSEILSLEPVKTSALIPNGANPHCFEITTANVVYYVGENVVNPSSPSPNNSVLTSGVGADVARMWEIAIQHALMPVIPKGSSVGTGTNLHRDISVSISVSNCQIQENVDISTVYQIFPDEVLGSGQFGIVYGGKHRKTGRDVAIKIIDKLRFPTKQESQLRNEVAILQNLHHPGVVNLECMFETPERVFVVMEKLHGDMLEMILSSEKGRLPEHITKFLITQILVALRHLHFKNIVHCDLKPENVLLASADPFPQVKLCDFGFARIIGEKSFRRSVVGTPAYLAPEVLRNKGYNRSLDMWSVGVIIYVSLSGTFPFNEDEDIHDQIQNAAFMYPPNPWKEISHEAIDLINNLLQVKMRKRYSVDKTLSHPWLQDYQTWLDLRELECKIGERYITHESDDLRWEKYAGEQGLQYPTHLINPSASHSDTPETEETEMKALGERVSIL", "assay": "Eurofins kinase panel", "format": "biochemical", "conditions": "read-out: Inhibition rate (%)"}, "[4]": {"target": "T4, Plk3(h) (Homo sapiens, UniProt Q9H4B4)", "T4 construct": "purchased Eurofins (KinaseProfiler)", "T4 sequence (Q9H4B4 whole entry)": "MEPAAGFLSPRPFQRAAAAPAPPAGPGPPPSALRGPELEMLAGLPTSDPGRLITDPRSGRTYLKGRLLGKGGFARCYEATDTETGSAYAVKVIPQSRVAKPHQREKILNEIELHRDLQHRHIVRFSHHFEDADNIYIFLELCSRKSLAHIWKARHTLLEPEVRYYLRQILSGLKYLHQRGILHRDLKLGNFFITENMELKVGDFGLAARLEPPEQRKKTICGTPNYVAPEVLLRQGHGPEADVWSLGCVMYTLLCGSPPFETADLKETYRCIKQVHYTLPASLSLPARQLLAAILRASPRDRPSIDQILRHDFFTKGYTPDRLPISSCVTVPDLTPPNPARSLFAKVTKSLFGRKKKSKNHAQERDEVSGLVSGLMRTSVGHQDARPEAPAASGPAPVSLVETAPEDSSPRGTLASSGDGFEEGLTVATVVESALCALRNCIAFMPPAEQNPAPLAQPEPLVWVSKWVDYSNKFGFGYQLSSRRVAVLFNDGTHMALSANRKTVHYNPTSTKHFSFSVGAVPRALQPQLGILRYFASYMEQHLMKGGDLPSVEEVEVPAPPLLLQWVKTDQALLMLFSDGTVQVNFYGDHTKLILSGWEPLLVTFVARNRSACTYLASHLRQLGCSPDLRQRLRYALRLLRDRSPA", "assay": "Eurofins kinase panel", "format": "biochemical", "conditions": "read-out: Inhibition rate (%)"}, "[5]": {"target": "T5, WNK3(h) (Homo sapiens, UniProt Q9BYP7)", "T5 construct": "purchased Eurofins (KinaseProfiler)", "T5 sequence (Q9BYP7 whole entry)": "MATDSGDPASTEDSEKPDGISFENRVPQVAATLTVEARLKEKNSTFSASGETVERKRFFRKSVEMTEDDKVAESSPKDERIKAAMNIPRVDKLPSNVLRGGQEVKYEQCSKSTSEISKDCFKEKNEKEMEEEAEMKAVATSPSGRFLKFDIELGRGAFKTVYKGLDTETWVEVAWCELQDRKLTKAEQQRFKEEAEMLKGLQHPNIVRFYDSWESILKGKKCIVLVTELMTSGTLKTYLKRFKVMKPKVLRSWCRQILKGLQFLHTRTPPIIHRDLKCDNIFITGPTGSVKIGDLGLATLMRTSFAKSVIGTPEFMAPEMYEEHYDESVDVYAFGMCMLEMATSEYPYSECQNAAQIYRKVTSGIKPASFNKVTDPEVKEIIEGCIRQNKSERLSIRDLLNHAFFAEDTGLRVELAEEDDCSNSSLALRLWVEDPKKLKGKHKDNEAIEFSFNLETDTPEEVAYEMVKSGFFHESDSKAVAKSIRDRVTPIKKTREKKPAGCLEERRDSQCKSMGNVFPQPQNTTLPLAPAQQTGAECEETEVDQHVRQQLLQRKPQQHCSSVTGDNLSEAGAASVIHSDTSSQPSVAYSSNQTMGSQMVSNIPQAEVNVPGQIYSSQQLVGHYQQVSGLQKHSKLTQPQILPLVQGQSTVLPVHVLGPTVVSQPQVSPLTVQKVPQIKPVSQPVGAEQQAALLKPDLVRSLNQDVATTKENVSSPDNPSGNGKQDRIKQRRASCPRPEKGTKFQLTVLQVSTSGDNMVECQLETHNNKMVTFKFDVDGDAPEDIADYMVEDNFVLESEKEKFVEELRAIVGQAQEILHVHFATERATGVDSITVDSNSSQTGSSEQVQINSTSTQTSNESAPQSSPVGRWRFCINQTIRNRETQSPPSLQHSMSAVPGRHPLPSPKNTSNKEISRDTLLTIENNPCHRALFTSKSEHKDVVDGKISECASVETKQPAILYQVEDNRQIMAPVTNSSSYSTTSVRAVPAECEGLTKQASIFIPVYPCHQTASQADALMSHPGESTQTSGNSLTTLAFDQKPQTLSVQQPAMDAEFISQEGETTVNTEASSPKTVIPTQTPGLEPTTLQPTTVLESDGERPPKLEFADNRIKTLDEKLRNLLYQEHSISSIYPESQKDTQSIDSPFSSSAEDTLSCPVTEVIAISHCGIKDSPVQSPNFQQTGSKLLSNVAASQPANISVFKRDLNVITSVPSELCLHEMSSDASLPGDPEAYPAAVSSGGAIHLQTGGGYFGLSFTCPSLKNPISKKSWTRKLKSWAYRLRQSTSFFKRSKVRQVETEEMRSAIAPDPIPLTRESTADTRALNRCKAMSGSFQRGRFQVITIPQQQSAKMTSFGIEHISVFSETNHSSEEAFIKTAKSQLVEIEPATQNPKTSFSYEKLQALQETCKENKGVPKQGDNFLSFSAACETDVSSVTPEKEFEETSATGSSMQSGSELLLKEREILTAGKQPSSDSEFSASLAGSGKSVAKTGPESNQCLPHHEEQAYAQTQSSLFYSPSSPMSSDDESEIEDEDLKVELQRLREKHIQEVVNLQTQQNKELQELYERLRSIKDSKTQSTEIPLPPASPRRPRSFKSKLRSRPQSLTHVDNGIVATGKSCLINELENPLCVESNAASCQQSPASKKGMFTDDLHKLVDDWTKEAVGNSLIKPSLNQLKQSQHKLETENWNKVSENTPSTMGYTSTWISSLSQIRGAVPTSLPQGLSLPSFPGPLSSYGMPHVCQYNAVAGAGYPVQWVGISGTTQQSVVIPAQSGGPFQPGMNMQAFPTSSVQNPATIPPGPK", "assay": "Eurofins kinase panel", "format": "biochemical", "conditions": "read-out: Inhibition rate (%)"}, "[6]": {"tested_on": "HUH7", "assay": "Cell proliferation assay", "format": "cell-based, human", "conditions": "Homo sapiens, Huh-7; 72 h, mean ± SD", "experimental": "(§1) The cancer cell lines indicated in Figure 3 were seeded in 96-well plates at a low density in growth medium. The next day, appropriate controls or the designated concentrations of the compounds were added to each well, and the cells were incubated for 72 h. HUVECs (passage 3) were seeded in 96-well plates in growth medium overnight and transferred to serum-free medium for 24 h. The following day, appropriate controls or the designated concentrations of the compounds were added to each well, and 100 ng/mL growth factor (bFGF or VEGF) was added to the indicated wells. The cells were incubated for 48 h. Finally, cell proliferation was determined using a sulforhodamine B (SRB) assay or a cell counting kit-8 (CCK-8) assay. […] IC50 values for proliferation curves were calculated using a 4-parameter logistic nonlinear regression model with SoftMax Pro Software (Molecular Devices, San Jose, USA)."}, "[7]": {"tested_on": "KATOIII", "assay": "Cell proliferation assay", "format": "cell-based, human", "conditions": "Homo sapiens, KATO III; 72 h, mean ± SD", "experimental": "as §1"}, "[8]": {"tested_on": "KG-1", "assay": "Cell proliferation assay", "format": "cell-based, human", "conditions": "Homo sapiens, KG-1; 72 h, mean ± SD", "experimental": "as §1"}, "[9]": {"tested_on": "NCI-H1581", "assay": "Cell proliferation assay", "format": "cell-based, human", "conditions": "Homo sapiens, NCI-H1581; 72 h, mean ± SD", "experimental": "as §1"}, "[10]": {"tested_on": "NCI-H716", "assay": "Cell proliferation assay", "format": "cell-based, human", "conditions": "Homo sapiens, NCI-H716; 72 h, mean ± SD", "experimental": "as §1"}, "[11]": {"tested_on": "OPM2", "assay": "Cell proliferation assay", "format": "cell-based, human", "conditions": "Homo sapiens, OPM-2; 72 h, mean ± SD", "experimental": "as §1"}, "[12]": {"tested_on": "RT112", "assay": "Cell proliferation assay", "format": "cell-based, human", "conditions": "Homo sapiens, RT-112; 72 h, mean ± SD", "experimental": "as §1"}, "[13]": {"tested_on": "SNU16", "assay": "Cell proliferation assay", "format": "cell-based, human", "conditions": "Homo sapiens, SNU-16; 72 h, mean ± SD", "experimental": "as §1"}, "[14]": {"tested_on": "SUM52PE", "assay": "Cell proliferation assay", "format": "cell-based, human", "conditions": "Homo sapiens, SUM52PE; 72 h, mean ± SD", "experimental": "as §1"}, "[15]": {"tested_on": "UMUC14", "assay": "Cell proliferation assay", "format": "cell-based, human", "conditions": "Homo sapiens, UMUC14; 72 h, mean ± SD", "experimental": "as §1"}}, "data": [{"smiles": "COc1cc(OC)c(Cl)c(-c2ccc3c(NC(=O)c4ccc(N5CCNC(C)(C)C5)cc4)n[nH]c3n2)c1Cl", "note": "[3D185]", "values": [{"measurement": "inhibition at 0.01 µM", "setting": "[1]; 10 nM", "result": -12, "unit": "%"}, {"measurement": "inhibition at 0.1 µM", "setting": "[1]; 100 nM", "result": 0, "unit": "%"}, {"measurement": "inhibition at 1 µM", "setting": "[1]; 1000 nM", "result": 4, "unit": "%"}, {"measurement": "inhibition at 0.01 µM", "setting": "[2]; 10 nM", "result": 2, "unit": "%"}, {"measurement": "inhibition at 0.1 µM", "setting": "[2]; 100 nM", "result": 3, "unit": "%"}, {"measurement": "inhibition at 1 µM", "setting": "[2]; 1000 nM", "result": 2, "unit": "%"}, {"measurement": "inhibition at 0.01 µM", "setting": "[3]; 10 nM", "result": -2, "unit": "%"}, {"measurement": "inhibition at 0.1 µM", "setting": "[3]; 100 nM", "result": 2, "unit": "%"}, {"measurement": "inhibition at 1 µM", "setting": "[3]; 1000 nM", "result": 11, "unit": "%"}, {"measurement": "inhibition at 0.01 µM", "setting": "[4]; 10 nM", "result": 5, "unit": "%"}, {"measurement": "inhibition at 0.1 µM", "setting": "[4]; 100 nM", "result": 1, "unit": "%"}, {"measurement": "inhibition at 1 µM", "setting": "[4]; 1000 nM", "result": 6, "unit": "%"}, {"measurement": "inhibition at 0.01 µM", "setting": "[5]; 10 nM", "result": -7, "unit": "%"}, {"measurement": "inhibition at 0.1 µM", "setting": "[5]; 100 nM", "result": 12, "unit": "%"}, {"measurement": "inhibition at 1 µM", "setting": "[5]; 1000 nM", "result": 71, "unit": "%"}, {"measurement": "IC50", "setting": "[6]", "result": "49.8 ± 1.5", "unit": "nM"}, {"measurement": "IC50", "setting": "[7]", "result": "11.3 ± 0.2", "unit": "nM"}, {"measurement": "IC50", "setting": "[8]", "result": "2 ± 0.4", "unit": "nM"}, {"measurement": "IC50", "setting": "[9]", "result": "17.3 ± 5.7", "unit": "nM"}, {"measurement": "IC50", "setting": "[10]", "result": "3 ± 0.4", "unit": "nM"}, {"measurement": "IC50", "setting": "[11]", "result": "19.2 ± 4.3", "unit": "nM"}, {"measurement": "IC50", "setting": "[12]", "result": "36.8 ± 6.8", "unit": "nM"}, {"measurement": "IC50", "setting": "[13]", "result": "0.9 ± 0.1", "unit": "nM"}, {"measurement": "IC50", "setting": "[14]", "result": 2, "unit": "nM"}, {"measurement": "IC50", "setting": "[15]", "result": "30.9 ± 5.3", "unit": "nM"}]}]}
